Data reported in patent US20030190378A1, “Extract of processed Panax genus plant, the preparation method thereof, and compositions containing the same” (priority 2002, published 2003).

Legend:
RBL-2H3 cell line = assay: Anti-allergic effect using IgE-sensitized, DNP-BSA-activated RBL-2H3 cell line (p-NAG substrate readout); format: cell-based, rat; conditions: for Anti-allergic effect in RBL cell IC50 / IC50: Table 4, saponin fractions and isolated saponins; for anti-allergic effect in words, allergy inhibition test using RBL-2H3 cell line: Tables 3 and 4; for IC50: Rattus norvegicus
Protocol: In order to confirm the anti-allergic effect of the extracts in the present invention, the experiment was performed by the procedure described in the literature (Inagaki. et al., Int, Arch. Allergy Appl. Immunol., 87, pp254-259, 1988).
RBL-2H3 cell line (rat basophil cell line, Korean Cell Line Bank, Cat. No.22256) were incubated with DMEM (Dulbecco's modified Eagle's) medium (Sigma No. D-5648, USA) containing 10% FBS (Fetal Bovine Serum), L-glutamine for 2 hours at 37° C. by using humidified 5% CO2 incubator and attached cells were floated by trypsin-EDTA solution, separated and recovered to use in further experiment. Each RBL-2H3 cells were transferred to 24 well plate to be adjusted to 5×10^5 cells/well, treated with 0.5 μg of mouse monoclonal IgE and incubated for 12 hours to be sensitization. The cell was washed with 0.5 ml of siraganian buffer solution (pH 7.2) composed of 119 mM NaCl, 5 mM KCl, 0.4 mM MgCl2, 25 mM PIPES and 40 mM NaOH. 0.16 ml of siraganian buffer solution containing 5.5 mM glucose, 1 mM CaCl2 and 0.1% BSA, was added thereto again and incubated for 10 minutes at 37° C. Thereafter, 40 μl of test sample solution containing the extract in the Comparative Example 1, 2, 3 and Example 1, 2, 3 were added thereto. After 20 minutes, the cells were activated by adding 0.02 ml of antigen, 1 μg/ml of DNP-BSA, for 10 minutes at 37° C., centrifuged at the speed of 2000 rpm for 10 minutes and 0.025 ml of the supernatant was transferred to 96 well plate. 0.025 ml of 1 mM p-NAG substrate solution prepared by dissolving p-nitrophenyl-N-acetyl-β-D-glucosaminide with 0.1M citrate buffer solution adjusted to pH 4.5, was added thereto, incubated for 60 minutes at 37° C. and 0.2 ml of 0.1M Na2CO3/NaHCO3 was added thereto to quench the reaction to measure their optical density at 405 nm by ELISA analyzer.

ICR mouse = assay: Passive cutaneous anaphylaxis test (Evans blue leakage); format: in vivo; conditions: for anti-allergic effect in words, passive cutaneous anaphylaxis: Tables 5 and 6
Protocol: 50 μl of diluted solution with physiological saline containing 10 μg of mouse IgE serum against dinitrophenol-human serum album (DNP-HSA, Sigma, USA), was injected to the back of ICR mouse (Dae Han Co., Ltd) anesthetized with ether to be passive sensitization. After 48 hours, 0.2 ml of physiological saline solution containing 0.2 mg of DNP-HSA and 1.6 mg of Evans blue was injected to the mouse's tail vein and the mouse was sacrificed by cervical dislocation to death and then the amount of Evans blue dye leaked to mouse's back was measured as follows. Certain circular area of mouse's back distant from the area where IGE injected about 1 cm^2 far, was cut and put into a test tube. 4 ml of mixture solution of 0.6M phosphoric acid and acetone with a ratio of 5:13 was added to the tube, stirred and filtered. The amount of dye was measured by colorimetric analysis at 620 nm.

| Molecule | Anti-allergic effect in RBL cell IC50 (RBL-2H3 cell line) | Passive cutaneous anaphylaxis Inhibitory rate (%) Abdominal administration (ICR mouse; Table 6, 25 mg/kg abdominal) | also measured |
| --- | --- | --- | --- |
| CC(C)=CCC[C@@](C)(O)[C@H]1CC[C@]2(C)[C@@H]1[C@H](O)C[C@@H]1[C@@]3(C)CC[C@H](O[C@@H]4O[C@H](CO)[C@@H](O)[C@H](O)[C@H]4O)C(C)(C)[C@@H]3CC[C@]12C [20(R)-ginsenoside Rh2] | >0.2 µg/mL |  |  |
| Δ^20-ginsenoside Rg3 | 0.09 µg/mL |  |  |
| O=C([O-])c1cc(=O)c2c(OCC(O)COc3cccc4oc(C(=O)[O-])cc(=O)c34)cccc2o1.[Na+].[Na+] [DSCG, Disodium Cromoglycate, reference compound] | 0.498 µg/mL |  | Passive cutaneous anaphylaxis Inhibitory rate (%) (ICR mouse; Table 5, 100 mg/kg): 37%; Passive cutaneous anaphylaxis Inhibitory rate (%) Oral administration (ICR mouse; Table 6, 100 mg/kg oral): 37% |
| CC(C)=CC/C=C(\C)[C@H]1CC[C@]2(C)[C@@H]1[C@H](O)C[C@@H]1[C@@]3(C)CC[C@H](O[C@@H]4O[C@H](CO)[C@@H](O)[C@H](O)[C@H]4O[C@@H]4O[C@H](CO)[C@@H](O)[C@H](O)[C@H]4O)C(C)(C)[C@@H]3CC[C@]12C [Gginsenoside Rg5, ginsenoside Rg5] |  | 45% |  |
| CC(C)=CCC[C@](C)(O)[C@H]1CC[C@]2(C)[C@@H]1[C@H](O)C[C@@H]1[C@@]3(C)CC[C@H](O[C@@H]4O[C@H](CO)[C@@H](O)[C@H](O)[C@H]4O[C@@H]4O[C@H](CO)[C@@H](O)[C@H](O)[C@H]4O)C(C)(C)[C@@H]3CC[C@]12C [20(S)-ginsenoside Rg3] | >0.2 µg/mL |  |  |
| CC(C)=CCC[C@](C)(O)[C@H]1CC[C@]2(C)[C@@H]1[C@H](O)C[C@@H]1[C@@]3(C)CC[C@H](O)C(C)(C)[C@@H]3CC[C@]12C [20(S)-protopanaxadiol] | >0.2 µg/mL |  |  |
| CC(C)=CCC=C(C)[C@H]1CC[C@]2(C)[C@@H]1[C@H](O)C[C@@H]1[C@@]3(C)CC[C@H](O)C(C)(C)[C@@H]3[C@@H](O[C@@H]3O[C@H](CO)[C@@H](O)[C@H](O)[C@H]3O[C@@H]3O[C@@H](C)[C@H](O)[C@@H](O)[C@H]3O)C[C@]12C (stereo in doubt) [Ginsenoside F4] |  | 63% |  |
| CC(C)=CCC[C@](C)(O)[C@H]1CC[C@]2(C)[C@@H]1[C@H](O)C[C@@H]1[C@@]3(C)CC[C@H](O[C@@H]4O[C@H](CO)[C@@H](O)[C@H](O)[C@H]4O)C(C)(C)[C@@H]3CC[C@]12C [Ginsenoside Rh2] |  | 88% | Passive cutaneous anaphylaxis Inhibitory rate (%) Oral administration (ICR mouse; Table 6, 25 mg/kg oral): 36%; anti-allergic effect in words, passive cutaneous anaphylaxis (ICR mouse): more potent inhibitory effects than that of DSCG; anti-allergic effect in words, allergy inhibition test using RBL-2H3 cell line (RBL-2H3 cell line): more potent inhibition effect than that of DSCG |
| CC(C)=CCC[C@](C)(O[C@@H]1O[C@H](CO[C@@H]2O[C@H](CO)[C@@H](O)[C@H](O)[C@H]2O)[C@@H](O)[C@H](O)[C@H]1O)[C@H]1CC[C@]2(C)[C@@H]1[C@H](O)C[C@@H]1[C@@]3(C)CC[C@H](O[C@@H]4O[C@H](CO)[C@@H](O)[C@H](O)[C@H]4O[C@@H]4O[C@H](CO)[C@@H](O)[C@H](O)[C@H]4O)C(C)(C)[C@@H]3CC[C@]12C [Ginsenoside Rb1] | >0.2 µg/mL |  | Passive cutaneous anaphylaxis Inhibitory rate (%) Abdominal administration (ICR mouse; Table 6, 50 mg/kg abdominal): 17% |
| CC(C)=CCC[C@](C)(O)[C@H]1CC[C@]2(C)[C@@H]1[C@H](O)C[C@@H]1[C@@]3(C)CC[C@H](O)C(C)(C)[C@@H]3[C@@H](O[C@@H]3O[C@H](CO)[C@@H](O)[C@H](O)[C@H]3O)C[C@]12C [Ginsenoside Rh1] | 0.02 µg/mL | 87% | Passive cutaneous anaphylaxis Inhibitory rate (%) Oral administration (ICR mouse; Table 6, 25 mg/kg oral): 79%; anti-allergic effect in words, passive cutaneous anaphylaxis (ICR mouse): more potent inhibitory effects than that of DSCG; anti-allergic effect in words, allergy inhibition test using RBL-2H3 cell line (RBL-2H3 cell line): more potent inhibition effect than that of DSCG |
| CC(C)=CCC[C@@](C)(O)[C@H]1CC[C@]2(C)[C@@H]1[C@H](O)C[C@@H]1[C@@]3(C)CC[C@H](O)C(C)(C)[C@@H]3CC[C@]12C [20(R)-protopanaxadiol] | >0.2 µg/mL |  |  |
| CC(C)=CCC[C@](C)(O)[C@H]1CC[C@]2(C)[C@@H]1[C@H](O)C[C@@H]1[C@@]3(C)CC[C@H](O)C(C)(C)[C@@H]3[C@@H](O[C@@H]3O[C@H](CO)[C@@H](O)[C@H](O)[C@H]3O[C@@H]3O[C@H](CO)[C@@H](O)[C@H](O)[C@H]3O)C[C@]12C [Ginsenoside Rf] |  | 40% | IC50 (RBL-2H3 cell line): 0.11 µg/mL |
| CC(C)=CCC[C@](C)(O[C@@H]1O[C@H](CO)[C@@H](O)[C@H](O)[C@H]1O)[C@H]1CC[C@]2(C)[C@@H]1[C@H](O)C[C@@H]1[C@@]3(C)CC[C@H](O)C(C)(C)[C@@H]3[C@@H](O[C@@H]3O[C@H](CO)[C@@H](O)[C@H](O)[C@H]3O[C@@H]3O[C@@H](C)[C@H](O)[C@@H](O)[C@H]3O)C[C@]12C [Ginsenoside Re] |  | 15% | IC50 (RBL-2H3 cell line): 0.06 µg/mL |
| CC(C)=CCC[C@](C)(O[C@@H]1O[C@H](CO)[C@@H](O)[C@H](O)[C@H]1O)[C@H]1CC[C@]2(C)[C@@H]1[C@H](O)C[C@@H]1[C@@]3(C)CC[C@H](O)C(C)(C)[C@@H]3[C@@H](O)C[C@]12C [Ginsenoside F1] | 0.13 µg/mL | 69% | anti-allergic effect in words, passive cutaneous anaphylaxis (ICR mouse): more potent inhibitory effects than that of DSCG; anti-allergic effect in words, allergy inhibition test using RBL-2H3 cell line (RBL-2H3 cell line): more potent inhibition effect than that of DSCG |
| CC(C)=CCC[C@](C)(O)[C@H]1CC[C@]2(C)[C@@H]1[C@H](O)C[C@@H]1[C@@]3(C)CC[C@H](O[C@@H]4O[C@H](CO)[C@@H](O)[C@H](O)[C@H]4O)C(C)(C)[C@@H]3CC[C@]12C [20(S)-ginsenoside Rh2] | 0.03 µg/mL |  |  |
| CC(C)=CCC[C@@](C)(O)[C@H]1CC[C@]2(C)[C@@H]1[C@H](O)C[C@@H]1[C@@]3(C)CC[C@H](O)C(C)(C)[C@@H]3CC[C@]12C [protopanaxadiol] |  | 25% |  |
| CC(C)=CCC[C@](C)(O[C@@H]1O[C@H](CO)[C@@H](O)[C@H](O)[C@H]1O)[C@H]1CC[C@]2(C)[C@@H]1[C@H](O)C[C@@H]1[C@@]3(C)CC[C@H](O)C(C)(C)[C@@H]3[C@@H](O[C@@H]3O[C@H](CO)[C@@H](O)[C@H](O)[C@H]3O)C[C@]12C [Ginsenoside Rg1] | 0.08 µg/mL | 37% |  |
| CC(C)=CCC[C@](C)(O[C@@H]1O[C@H](CO[C@@H]2OC[C@H](O)[C@H](O)[C@H]2O)[C@@H](O)[C@H](O)[C@H]1O)[C@H]1CC[C@]2(C)[C@@H]1[C@H](O)C[C@@H]1[C@@]3(C)CC[C@H](O[C@@H]4O[C@H](CO)[C@@H](O)[C@H](O)[C@H]4O[C@@H]4O[C@H](CO)[C@@H](O)[C@H](O)[C@H]4O)C(C)(C)[C@@H]3CC[C@]12C [Ginsenoside Rb2] | >0.2 µg/mL | 12% |  |
| CC(C)=CCC[C@](C)(O)[C@H]1CC[C@]2(C)[C@@H]1[C@H](O)C[C@@H]1[C@@]3(C)CC[C@H](O[C@@H]4O[C@H](CO)[C@@H](O)[C@H](O)[C@H]4O[C@@H]4O[C@H](CO)[C@@H](O)[C@H](O)[C@H]4O)C(C)(C)[C@@H]3CC[C@]12C [Ginsenoside Rg3] |  |  | Passive cutaneous anaphylaxis Inhibitory rate (%) Abdominal administration (ICR mouse; Table 6, abdominal, dosage cell empty): 47%; Passive cutaneous anaphylaxis Inhibitory rate (%) Oral administration (ICR mouse; Table 6, oral, dosage cell empty): 38% |
